ChEMBL document CHEMBL1201862, “PubChem BioAssay data set” (2004)
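Following 48 hours of exposure in 96-well plates, responses at five concentrations were used to interpolate endpoints linearly. GI50: concentration for 50% inhibition of growth.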 Activity calls are given as the source filed them. No stated cut-off is given here; in the data, active = GI50 up to about 1.1 µM and inactive = higher.

Legend:
Experiment in all cases: DTP human tumour cell line panel, 48 h
[1] = test system: LOX IMVI
[2] = test system: NCI/ADR-RES
[3] = test system: RXF 393
[4] = test system: SK-MEL-2
[5] = test system: HCT-116
[6] = test system: UACC-62
[7] = test system: MCF7
[8] = test system: MOLT-4
[9] = test system: MDA-MB-435
[10] = test system: TK-10
[11] = test system: SK-MEL-28
[12] = test system: COLO 205
[13] = test system: SNB-19
[14] = test system: ACHN
[15] = test system: CCRF-CEM
[16] = test system: PC-3
[17] = test system: MDA-N
[18] = test system: IGROV-1
[19] = test system: OVCAR-8
[20] = test system: BT-549

Row | SMILES | GI50 [1] | GI50 [2] | GI50 [3] | GI50 [4] | GI50 [5] | GI50 [6] | GI50 [7] | GI50 [8] | GI50 [9] | GI50 [10] | GI50 [11] | GI50 [12] | GI50 [13] | GI50 [14] | GI50 [15] | GI50 [16] | GI50 [17] | GI50 [18] | GI50 [19] | GI50 [20]
1 | COc1cccc([C@@H]2C/C(=N\NC(=O)C(=O)N[C@@H](C)c3ccccc3)c3ccccc3N2)c1 | > 100 µM (inactive) | 65.2 µM (inactive) | 35.3 µM (inactive) | > 100 µM (inactive) | > 100 µM (inactive) | 9.31 µM (inactive) | 7.05 µM (inactive) | 4.1 µM (inactive) | 4.82 µM (inactive) | > 100 µM (inactive) | > 100 µM (inactive) | > 100 µM (inactive) | 24.6 µM (inactive) | 40.6 µM (inactive) | > 100 µM (inactive) | > 100 µM (inactive) | 4.66 µM (inactive) | – | – | –
2 | COc1c2c3c4c(c(OC)c(=O)c5c(O)cc(OC)c(c6c(OC)cc(O)c(c1=O)c63)c54)C(C(C)O)C2C(C)O (stereo not drawn) | 0.883 µM (active) | 0.923 µM (active) | 0.471 µM (active) | 1.23 µM (inactive) | 0.847 µM (active) | 0.953 µM (active) | 1.03 µM (active) | 0.505 µM (active) | 0.67 µM (active) | 1.72 µM (inactive) | 0.953 µM (active) | 0.789 µM (active) | 0.83 µM (active) | 0.811 µM (active) | 0.542 µM (active) | 0.594 µM (active) | 0.767 µM (active) | 0.853 µM (active) | 0.449 µM (active) | –
3 | Fc1ccc(-c2sc(-c3cccs3)cc2Cc2cccs2)cc1 | > 100 µM (inactive) | > 100 µM (inactive) | 50.6 µM (inactive) | > 100 µM (inactive) | > 100 µM (inactive) | > 100 µM (inactive) | > 100 µM (inactive) | 31.1 µM (inactive) | > 100 µM (inactive) | > 100 µM (inactive) | > 100 µM (inactive) | > 100 µM (inactive) | > 100 µM (inactive) | > 100 µM (inactive) | 91 µM (inactive) | – | – | > 100 µM (inactive) | > 100 µM (inactive) | > 100 µM (inactive)
4 | CN(C)/C=N\c1cccc2c1NSN2 | > 100 µM (inactive) | > 100 µM (inactive) | > 100 µM (inactive) | > 100 µM (inactive) | > 100 µM (inactive) | > 100 µM (inactive) | > 100 µM (inactive) | > 100 µM (inactive) | > 100 µM (inactive) | > 100 µM (inactive) | > 100 µM (inactive) | > 100 µM (inactive) | > 100 µM (inactive) | > 100 µM (inactive) | > 100 µM (inactive) | > 100 µM (inactive) | > 100 µM (inactive) | > 100 µM (inactive) | > 100 µM (inactive) | –
5 | Nc1nc2c(ncn2C2C=CC(COS(N)(=O)=O)C2)c(=O)[nH]1 (stereo not drawn) | > 100 µM (inactive) | > 100 µM (inactive) | > 100 µM (inactive) | > 100 µM (inactive) | > 100 µM (inactive) | > 100 µM (inactive) | > 100 µM (inactive) | > 100 µM (inactive) | > 100 µM (inactive) | > 100 µM (inactive) | > 100 µM (inactive) | > 100 µM (inactive) | > 100 µM (inactive) | > 100 µM (inactive) | > 100 µM (inactive) | > 100 µM (inactive) | > 100 µM (inactive) | > 100 µM (inactive) | > 100 µM (inactive) | –
6 | C=C1C(=O)O[C@H]2C(=O)[C@H](C)CCC/C(C)=C/CC[C@@]3(C)O[C@@H]3C[C@@H]12 | 1.49 µM (inactive) | 14 µM (inactive) | – | 5.26 µM (inactive) | 1.05 µM (active) | 5.06 µM (inactive) | 3.02 µM (inactive) | 1.61 µM (inactive) | 1.98 µM (inactive) | 0.135 µM (active) | – | 1.58 µM (inactive) | 11.4 µM (inactive) | 1.34 µM (inactive) | 1.18 µM (inactive) | 6.76 µM (inactive) | 2.74 µM (inactive) | 2.76 µM (inactive) | 1.69 µM (inactive) | –
7 | COc1cc([C@@H]2c3cc4c(cc3C[C@H]3COC(=O)[C@@H]32)OCO4)cc2c1OCO2 [AUSTROBAILIGNAN 1] | < 0.01 µM (active) | < 0.01 µM (active) | < 0.01 µM (active) | < 0.01 µM (active) | < 0.01 µM (active) | < 0.01 µM (active) | < 0.01 µM (active) | < 0.01 µM (active) | < 0.01 µM (active) | 1.99 µM (inactive) | < 0.01 µM (active) | 0.0108 µM (active) | < 0.01 µM (active) | < 0.0121 µM (active) | 0.664 µM (active) | < 0.01 µM (active) | < 0.01 µM (active) | < 0.01 µM (active) | < 0.01 µM (active) | –
